The nature of one data set: Toxicity studies in mice. The format is in vivo. The conditions noted are these: B6C3F1 mice, orally 30 mg/kg, 50 mg/kg and 80 mg/kg, 21 days. Here is the method:
Female B6C3F1 mice (12/group) were given example 4 orally at 30 mg/kg, 50 mg/kg and 80 mg/kg dosage or example 820 mg/kg orally for 21 days.

The subject of another data set is B16F10 melanoma cells. The experiment in a line: Reduction of murine B16F10 melanoma lung nodules in mice. The format is in vivo, B6C3F1 mice. The conditions noted are these: 20 mg/kg daily gavage. Here is the method:
FIG. 5. […] Female B6C3F1 mice (10-11/group) were injected with 2×10^5 B16F10 melanoma cells (i.v.), and treatment with 20 mg/kg dose daily (gavage) was started one day before the tumor cell injection and stopped at day 15 after tumor injection. Mice were sacrificed at day 18 and lungs were removed for counting and observation.
Female B6C3F1 mice (10-11/group) were injected with 2×10^5 B16F10 melanoma cells (i.v.), and treatment with the compound produced as described in Example 4i.e. 3-(2-aminoethyl)-5-(3-cyclohexylpropylidene)thiazolidine-2,4-dione, 20 mg/kg dosage daily (gavage) was started one day before the tumor cell injection and stopped at day 15 after tumor injection. Mice were sacrificed at day 18 and lungs were removed for counting and observation.

In data set [1] the test system is U937 cells. As to the kind of experiment: Cell cycle analysis (PI flow cytometry). The format is cell-based. The conditions noted are these: 24 h. Here is the method: FIG. 3. Effects of Formula II and Formula III on U937 cell cycle. Cells were treated with compounds prepared as described in Examples 4 and 8 [i.e. 3-(2-aminoethyl)-5-(3-cyclohexylpropylidene)thiazolidine-2,4-dione and 3-(2-aminoethyl)-5-(3-phenyl-propylidene)-thiazolidine-2,4-dione, respectfully] for 24 hrs, then cells were stained with PI and analyzed by flow cytometry.
After treatment of cells with test compound of varying concentrations for 24 hrs, cells were pelleted at 4° C., resuspended, fixed at 4° C. with 67% ethanol overnight, and treated on ice with a PI solution containing 3.8 mM Na citrate, 0.5 mg/mL RNase A (Sigma Chemical Co.), and 0.01 mg/mL PI (Sigma) for 3 hrs. Cell cycle analysis was performed by flow cytometry using Verity Winlist software (Topsham, Me.).
Background: Flow cytometry measures light scatter and fluorescence of single cells or particles in a stream.

For a further data set, the system named is phosphorylation of Akt. As to the kind of experiment: Western blot analysis of p-Akt in U937 cells. The format is cell-based. The conditions noted are these: PMA/TPA 200 nM stimulation. Here is the method: (§1) FIG. 1. U937 cells were treated with Formula II prepared as described in Example 4 [i.e. 3-(2-aminoethyl)-5-(3-cyclohexylpropylidene)thiazolidine-2,4-dione] for 1 h, then stimulated with PMA (200 nM) for 30 min. Lysates were analyzed for p-Akt, p-MEK, p-ERK and α-tubulin by western blot analysis.
(§2) Cells (5×10^5 per ml) were treated with various concentrations of test compound at 37° C. (5% CO2) for 3 hrs, then stimulated with TPA at a final concentration of 200 nM for 20 min. Samples from whole-cell pellets were prepared and 30 μg protein for each condition was subjected to SDS-PAGE, transferred onto a PVDF membrane, and blocked with 5% fat-free milk for 30 min. The membrane is probed with primary antibodies overnight at 4° C. followed by incubation with horseradish peroxidase-labeled anti-mouse IgG (1:5000, BD Biosciecne). The immunoreactive bands are detected by chemiluminescence methods (Pierce) and visualized on Kodak Omat film. The following primary antibodies were used: phospho-p44/42 MAPK (ERK1/2, Thr202/Tyr204), p44/42 MAPK, phospho-p90RSK (Thr359/Ser363), RSK1/RSK2/RSK3 (Cell Signaling). Blots were reprobed with antibodies against α-tubulin to ensure equal loading and transfer of proteins.

The test system of another data set is p-MEK. As to the kind of experiment: Western blot analysis of p-MEK in U937 cells. The format is cell-based. The conditions noted are these: PMA/TPA 200 nM stimulation. Here is the method: as §1, §2
A general note: In western blotting, separated proteins are transferred to a membrane and probed.

For another data set, the system named is phosphorylation of ERK. The experiment in a line: Western blot analysis of p-ERK in U937 cells. The format is cell-based. The conditions noted are these: 3 μM, PMA/TPA 200 nM stimulation. Here is the method: as §1, §2
A further data set concerns M12 cells. As to the kind of experiment: Cell apoptosis assay (annexin V/PI flow cytometry). The format is cell-based. The conditions noted are these: 24 hrs. Here is the method:
(§3) FIG. 2. Indicated cancer cells were treated with Formula II synthesized as described in Example 4, 3-(2-aminoethyl)-5-(3-cyclohexylpropylidene)thiazolidine-2,4-dione, at indicated concentrations for 24 hrs, then stained with Annexin-V/PI and analyzed by flow cytometry.
(§4) Apoptosis was measured by flow cytometry using annexin V/propidium iodide (PI) as staining reagent. Briefly, after treatment with test compound of varying concentrations for varying intervals (4, 8, 18, 36 hrs), cells were washed twice with cold PBS and then resuspended in 1× binding buffer (10 mM HEPES [N-2-hydroxyethylpiperazine-N′-2-ethanesulfonic acid]/NaOH, pH 7.4, 140 mM […], 2.5 mM CaCl2). The cells were then incubated with annexin V-fluorescein isothiocyanate (FITC) (BD PharMingen, San Diego, Calif.) and 5 μg/mL propidium iodide (PI), and incubated for 15 minutes at room temperature in the dark per the manufacturer's instructions. The samples were analyzed by flow cytometry using a Becton Dickinson FACScan (Becton Dickinson, San Jose, Calif.) within 1 hr to determine the percentage of cells displaying annexin V staining (early apoptosis) or both annexin V and PI staining (late apoptosis).

For data set [2], the system named is U937 cells. As to the kind of experiment: Cell apoptosis assay (annexin V/PI flow cytometry). The conditions noted are these: 24 hrs. The format is cell-based. Here is the method:
as §3, §4

A further data set has as its system DU145 cells. The experiment in a line: Cell apoptosis assay (annexin V/PI flow cytometry). The format is cell-based. The conditions noted are these: 24 hrs. Here is the method:
as §3, §4

The text below walks through data of patent US20110166191A1, “3-(2-amino-ethyl)-5-(3-cyclohexyl-propylidene)-thiazolidine-2,4-dione and its derivatives as multiple signaling pathway inhibitors and for the treatment of cancer” (priority 2010, published 2011).

As for `NCCN1C(=O)S/C(=C\CCC2CCCCC2)C1=O` [Example 4, 3-(2-aminoethyl)-5-(3-cyclohexylpropylidene)thiazolidine-2,4-dione], the “effects on general health and body weight” value in the data set “Toxicity studies in mice” is “no effects on general health and body weight were observed”. Moreover, the lung tumor nodules result with B16F10 melanoma cells (B6C3F1 mice, B16F10 melanoma cells i.v., lungs at day 18) was “decreased the lung tumor nodules”. Also, in the data set with B16F10 melanoma cells (mice), the “oral bioavailability (in words)” value was “orally bioavailable”. For the same compound, the “effect on cell cycle” value in the data set on U937 cells [1] was “arrested U937 cells at G2/M phase”. For the same compound, the “phosphorylation of Akt (p-Akt, western blot)” value with phosphorylation of Akt is reported as “dose dependently inhibited the phosphorylation of Akt”. The “p-MEK level (western blot)” value in the data set on p-MEK is recorded as “dose-dependently decreased the p-MEK level”. For the same compound, in the data set on phosphorylation of ERK, the “phosphorylation of ERK (p-ERK, western blot)” value was “significantly inhibited the phosphorylation of ERK”. Further, the “apoptosis (Annexin-V/PI)” value was “significantly and dose-dependently induced apoptosis” in the data set with M12 cells; “significantly and dose-dependently induced apoptosis” with U937 cells [2]; “minimal apoptotic effects” in the data set with DU145 cells.
